This note sets out measurements from US11168055B2, “Endocyclic thiamidinoamide-arylamide compound and use thereof for treating hepatitis B” (SHANGHAI LONGWOOD BIOPHARMACEUTICALS CO., LTD., priority 2017, dated 2021).

Like-named read-outs stand apart in the source and are kept apart here.

Series [1] relates to HBV DNA in the supernatant of HepG2.2.15. Nature of the series: Determination of anti-HBV activity in HepG2.2.15 cell (HBV DNA in supernatant by qPCR). The series is classed as cell-based, Hepatitis B virus.
A short description of series [2]: Determination of cytotoxicity (HepG2 cells, resazurin assay, 4 days). The series is classed as cell-based. The following applies: human, read-out: Experiment 3 Cytotoxicity CC50. Here is the method: Experiment 3: Determination of Cytotoxicity
The cytotoxicity of the test compound was tested using HepG2 cells. The cells were incubated for 4 days in the presence of the test compound. Cell activity was assessed using the resazurin assay.

[3] abbreviates: HepG2.2.15 cells, HBV DNA, read-out: Experiment 2 Cell experiment EC50.
Setting [4] is: Hepatitis B virus, HepG2.2.15, HepG2.2.15 cells, HBV DNA, read-out: Experiment 2 Cell experiment EC50.

With `CC(C)C[C@H]1CCc2c(cn(C)c2C(=O)Nc2ccc(F)c(C#N)c2)S(=O)(=NC2CC2)N1` (single isomer, unassigned) [Compound 60y1], the EC50 in series [1] (setting [3]) lay in the range of 100 to 1000 nM. Besides, the half-maximal cytotoxic concentration (CC50) at 4 days in series [2] was > 30000 nM.
In the same order, the values of `CC(C)[C@H]1CCc2c(cn(C)c2C(=O)Nc2cc(F)c(F)c(F)c2)S(=N)(=O)N1` (single isomer, unassigned) [Compound 20c1] are 100 to 1000 nM and > 30000 nM.
As for `Cn1cc2c(c1C(=O)Nc1ccc(F)c(F)c1)CC[C@H](CO)NS2(=N)=O` (single isomer, unassigned) [Compound 40g1], the 50% effective concentration (EC50) in series [1] (setting [4]) was in the range of 100 to 1000 nM. Moreover, the CC50 at 4 days in series [2] is > 30000 nM.
Turning to `CC[C@H](C)[C@H]1C=Cc2c(cn(C)c2C(=O)Nc2ccc(F)c(F)c2)S(=N)(=O)N1` (single isomer, unassigned) [Compound 10n1], the EC50 in series [1] (setting [3]) lay within 100 to 1000 nM. Besides, the 50% cytotoxic concentration (CC50) at 4 days in series [2] was > 30000 nM.
Turning to `C[C@@H](OCc1ccccc1)[C@H]1CCc2c(cn(C)c2C(=O)Nc2ccc(F)c(C#N)c2)S(=N)(=O)N1` (single isomer, unassigned) [Compound 20ccc1], the EC50 in series [1] (setting [4]) was 0.1 to 100 nM. For the same molecule, the 50% cytotoxic concentration (CC50) at 4 days in series [2] was > 30000 nM.
As to `CN=S1(=O)N[C@@H](CC(C)C)CCc2c1nn(C)c2C(=O)Nc1ccc(F)c(C#N)c1` (single isomer, unassigned) [Compound 90b1], the concentration giving a half-maximal response (EC50) in series [1] (setting [3]) fell in the range of 100 to 1000 nM. Further, the cytotoxic concentration (CC50) at 4 days in series [2] is > 30000 nM.
Consider `Cn1cc2c(c1C(=O)Nc1cc(F)nc(C#N)c1)CC[C@H](C1CCCCC1)NS2(=N)=O` (single isomer, unassigned) [Compound 20dd1], for which the EC50 in series [1] (setting [3]) lay in the range of 100 to 1000 nM. In addition, the 50% cytotoxic concentration (CC50) at 4 days in series [2] is > 30000 nM.
In the same order, the values of `CC(C)[C@H]1C=Cc2c(cn(C)c2C(=O)Nc2cc(F)c(F)c(F)c2)S(=N)(=O)N1` (single isomer, unassigned) [Compound 10c1] are 100 to 1000 nM and > 30000 nM.
In the same order, the values of `CN=S1(=O)N[C@@H](C(C)C)C=Cc2c1cn(C)c2C(=O)Nc1ccc(F)c(F)c1` (single isomer, unassigned) [Compound 50a1] are 100 to 1000 nM and > 30000 nM.
With `Cn1cc2c(c1C(=O)Nc1ccc(F)c(C#N)c1)C=C[C@H](C1CCCCC1)NS2(=N)=O` (single isomer, unassigned) [Compound 10cc1], the concentration giving a half-maximal response (EC50) in series [1] (setting [3]) was 100 to 1000 nM. The CC50 at 4 days in series [2] is > 30000 nM.
With `CC(O)[C@H]1C=Cc2c(cn(C)c2C(=O)Nc2cc(F)c(F)c(F)c2)S(=N)(=O)N1` (single isomer, unassigned) [Compound 30c1], in series [1] (setting [4]), the EC50 was in the range of 100 to 1000 nM. For the same molecule, the 50% cytotoxic concentration (CC50) at 4 days in series [2] was > 30000 nM.
On to `CN=S1(=O)N[C@@H](CC(C)C)CCc2c1cn(C)c2C(=O)Nc1ccc(F)c(C#N)c1` (single isomer, unassigned) [Compound 60v1], for which, in series [1] (setting [3]), the half-maximal effective concentration (EC50) is 100 to 1000 nM. Moreover, in series [2], the CC50 at 4 days is > 30000 nM.
Consider `CC(C)[C@H]1C=Cc2c(cn(C)c2C(=O)Nc2ccc(F)c(C#N)c2)S(=N)(=O)N1` (single isomer, unassigned) [Compound 10b1], for which the EC50 in series [1] (Hepatitis B virus, HepG2.2.15, read-out: Experiment 2 Cell experiment EC50) was 100 to 1000 nM. Also, in series [2], the cytotoxic concentration (CC50) at 4 days was > 30000 nM.
In the case of `CC(C)[C@@H]1C=Cc2c(cn(C)c2C(=O)Nc2ccc(F)c(C#N)c2)S(=N)(=O)N1` (single isomer, unassigned) [Compound 10h1], in series [1] (setting [4]), the EC50 was > 1000 nM. Further, in series [2], the CC50 at 4 days was > 30000 nM.
For the molecule `CN=S1(=O)N[C@@H](CC(C)C)C=Cc2c1cn(C)c2C(=O)Nc1ccc(F)c(C#N)c1` (single isomer, unassigned) [Compound 50s1], the EC50 in series [1] (setting [3]) lay in the range of 100 to 1000 nM. Moreover, the half-maximal cytotoxic concentration (CC50) at 4 days in series [2] is > 30000 nM.
With `CC(C)[C@H]1C=Cc2c(cn(C)c2C(=O)Nc2ccnc(C(F)F)c2)S(=N)(=O)N1` (single isomer, unassigned) [Compound 10f1], the EC50 in series [1] (setting [3]) fell in the range of 100 to 1000 nM. For the same molecule, in series [2], the CC50 at 4 days is > 30000 nM.
Regarding `Cn1cc2c(c1C(=O)Nc1ccnc(C(F)F)c1)CC[C@H](C1CCCCC1)NS2(=N)=O` (single isomer, unassigned) [Compound 20ee1], the EC50 in series [1] (setting [3]) fell in the range of 100 to 1000 nM. In series [2], the half-maximal cytotoxic concentration (CC50) at 4 days is > 30000 nM.
`CC(C)[C@H]1CCc2c(cn(C)c2C(=O)Nc2ccc(F)c(F)c2)S(=N)(=O)N1` (single isomer, unassigned) [Compound 20a1]: in series [1] (setting [3]), the 50% effective concentration (EC50) lay in the range of 100 to 1000 nM. Besides, in series [2], the 50% cytotoxic concentration (CC50) at 4 days is > 30000 nM.
Regarding `CC(C)C[C@H]1C=Cc2c(nn(C)c2C(=O)Nc2ccc(F)c(C#N)c2)S(=N)(=O)N1` (single isomer, unassigned) [Compound 70b1], the EC50 in series [1] (setting [3]) is 100 to 1000 nM. Moreover, in series [2], the CC50 at 4 days was > 30000 nM.
Consider `CC(O)[C@H]1C=Cc2c(cn(C)c2C(=O)Nc2ccc(F)c(C#N)c2)S(=N)(=O)N1` (single isomer, unassigned) [Compound 30b1], for which the concentration for a half-maximal effect (EC50) in series [1] (setting [4]) fell in the range of 100 to 1000 nM. For the same molecule, in series [2], the cytotoxic concentration (CC50) at 4 days is > 30000 nM.
With `COc1ccc(CC[C@H](C)[C@H]2C=Cc3c(cn(C)c3C(=O)Nc3cc(F)nc(C#N)c3)S(=N)(=O)N2)cc1` (single isomer, unassigned) [Compound 10vvv1], in series [1] (setting [3]), the EC50 lay in the range of 100 to 1000 nM. In addition, the CC50 at 4 days in series [2] was > 30000 nM.
For `COc1ccc(CC[C@H](C)[C@H]2CCc3c(cn(C)c3C(=O)Nc3cc(F)c(F)c(F)c3)S(=N)(=O)N2)cc1` (single isomer, unassigned) [Compound 20ttt1], the concentration giving a half-maximal response (EC50) in series [1] (setting [3]) was in the range of 100 to 1000 nM. Also, the CC50 at 4 days in series [2] was > 30000 nM.
As for `CC(O)[C@H]1C=Cc2c(cn(C)c2C(=O)Nc2ccc(F)c(F)c2)S(=N)(=O)N1` (single isomer, unassigned) [Compound 30a1], the EC50 in series [1] (setting [4]) is 100 to 1000 nM. In series [2], the CC50 at 4 days was > 30000 nM.
With `C[C@@H](OCc1ccccc1)[C@H]1C=Cc2c(cn(C)c2C(=O)Nc2cc(F)c(F)c(F)c2)S(=N)(=O)N1` (single isomer, unassigned) [Compound 10ddd1], the 50% effective concentration (EC50) in series [1] (setting [3]) lay within 100 to 1000 nM. Besides, the CC50 at 4 days in series [2] was > 30000 nM.
Taken in the same sequence, the figures for `CCN=S1(=O)N[C@@H](C(C)C)CCc2c1cn(C)c2C(=O)Nc1ccc(F)c(C#N)c1` (single isomer, unassigned) [Compound 60g1] were 100 to 1000 nM and > 30000 nM.
On to `CC(C)[C@H]1CCc2c(nn(C)c2C(=O)Nc2ccc(F)c(C#N)c2)S(=N)(=O)N1` (single isomer, unassigned) [Compound 80a1], for which the EC50 in series [1] (setting [3]) lay in the range of 100 to 1000 nM. Moreover, the CC50 at 4 days in series [2] was > 30000 nM.
In the same order, the values of `C[C@@H](OCc1ccccc1)[C@H]1C=Cc2c(cn(C)c2C(=O)Nc2ccc(F)c(C#N)c2)S(=N)(=O)N1` (single isomer, unassigned) [Compound 10ccc1] are 100 to 1000 nM and > 30000 nM.
Consider `Cn1cc2c(c1C(=O)Nc1ccc(F)c(F)c1)C=C[C@H](C1CCCCC1)NS2(=N)=O` (single isomer, unassigned) [Compound 10bb1], for which, in series [1] (setting [3]), the EC50 was 100 to 1000 nM. In addition, in series [2], the half-maximal cytotoxic concentration (CC50) at 4 days is > 30000 nM.
Take `CC(C)[C@H]1C=Cc2c(cn(C)c2C(=O)Nc2ccc(F)c(F)c2)S(=N)(=O)N1` (single isomer, unassigned) [Compound 10a1]: the EC50 in series [1] (setting [3]) fell in the range of 100 to 1000 nM. Besides, the 50% cytotoxic concentration (CC50) at 4 days in series [2] is > 30000 nM.
In the same order, the values of `CCN=S1(=O)N[C@@H](CC(C)C)C=Cc2c1cn(C)c2C(=O)Nc1ccc(F)c(C#N)c1` (single isomer, unassigned) [Compound 50t1] are 100 to 1000 nM and > 30000 nM.
`CC(C)C[C@H]1C=Cc2c(cn(C)c2C(=O)Nc2ccc(F)c(C#N)c2)S(=O)(=NC2CC2)N1` (single isomer, unassigned) [Compound 50v1]: in series [1] (setting [3]), the 50% effective concentration (EC50) lay within 100 to 1000 nM. In addition, the CC50 at 4 days in series [2] was > 30000 nM.
